Reference: US20180333401A1, “METHODS OF TREATING LIVER DISEASE” (Gilead Sciences, Inc., priority 2017, published 2018)
Marks after values point to notes of the source that are not given here.

What was measured:
Format in all cases: in vivo, human
ALT, GGT = assay: Liver biochemistry (ALT, GGT), proof of concept study in subjects with NASH; conditions: for ALT, median relative (%) change from BL / GGT, median relative (%) change from BL: W12, orally QD for 12 weeks
Method: (§1) 70 subjects with NASH diagnosed by a hepatic proton density fat fraction (PDFF) ≥10% and liver stiffness ≥2.88 kPa by MRE, or liver biopsy consistent with NASH and stage 2-3 fibrosis were enrolled. Successive cohorts received monotherapy with Formula (II) 18 mg, Formula (VII) 20 mg, or Formula (V) 30 mg (n=10/cohort), or combination therapy with Formula (II)+Formula (VII) (18/20 mg) or Formula (II)+Formula (V) (18/30 mg) (n=20/cohort) orally QD for 12 weeks. Centrally-read PDFF and MRE, and serum fibrosis markers were measured at baseline (BL), W4 and W12. Deuterated water was administered to measure fractional synthesis of lipids (de novo lipogenesis [DNL]) and fibrosis-related markers (data are pending).

[1] = system: hepatic proton density fat fraction (PDFF); assay: Hepatic fat by MRI-PDFF, proof of concept study in subjects with NASH; conditions: for PDFF compared with BL (in words): 12 weeks; for MRI-PDFF, median relative (%) change from BL / ≥30% reduction in MRI-PDFF, % of subjects: W12, orally QD for 12 weeks
Method: as §1

TIMP-1, PIII-NP = assay: Serum fibrosis markers (TIMP-1, PIII-NP), proof of concept study in subjects with NASH; conditions: for PIII-NP, median relative (%) change from BL / TIMP-1, median relative (%) change from BL: serum, W12, orally QD for 12 weeks
Method: as §1

liver stiffness = assay: Liver stiffness by MRE, proof of concept study in subjects with NASH; conditions: W12, orally QD for 12 weeks
Method: as §1

[2] = Safety (AEs), proof of concept study in subjects with NASH; conditions: over 12 weeks, orally QD
Method: as §1

| Structure (SMILES) | ALT compared with BL (in words) (ALT, GGT; 12 weeks) | GGT compared with BL (in words) (ALT, GGT; 12 weeks) | ALT, median relative (%) change from BL (ALT, GGT) [%] | GGT, median relative (%) change from BL (ALT, GGT) | PDFF compared with BL (in words) [1] | MRI-PDFF, median relative (%) change from BL [1] | ≥30% reduction in MRI-PDFF, % of subjects [1] [%] | PIII-NP, median relative (%) change from BL (TIMP-1, PIII-NP) [%] | TIMP-1, median relative (%) change from BL (TIMP-1, PIII-NP) | MRE, median relative (%) change from BL (liver stiffness) [%] | Grade 2 or higher AE, % of subjects [2] [%] | PIII-NP compared with BL (in words) (TIMP-1, PIII-NP; 12 weeks) | TIMP-1 compared with BL (in words) (TIMP-1, PIII-NP; 12 weeks) |
| --- | --- | --- | --- | --- | --- | --- | --- | --- | --- | --- | --- | --- | --- |
| O=C(O)c1ccnc(N2CC(O)(c3ccc(OCc4c(-c5c(Cl)cccc5Cl)noc4C4CC4)cc3Cl)C2)c1 [Formula (V)] | reduced | reduced | −29.7 | −19.3* % | reduced | −15.6* % | 0 | 8.8 | 6.6* % | −8.3 | 40 | – | – |
| Cc1cc(F)c(C(=O)Nc2cccc(-c3nncn3[C@@H](C)CF)n2)cc1-n1cnc(C2CC2)c1 [Formula (VII)] | non-significant reductions | – | −33.5 | −1.6% | significant improvements | −42.7* % | 70 | −11.9 | −11.6* % | −8.9 | 40 | non-significant reductions | significant improvements |
| Cc1cc(F)c(C(=O)Nc2cccc(-c3nncn3C(C)C)n2)cc1-n1cnc(C2CC2)c1 [Formula (II)] | – | – | −1.2 | −4.4% | – | 7.1% | 10 | −8.7 | 2.6% | −8.6 | 40 | – | – |
